# Laboratory results reported in patent US11180521B2, “Nicotinamide riboside analogs, pharmaceutical compositions, and uses thereof” (Metro International Biotech, LLC, priority 2018, dated 2021).
# Tests used:
# Type in all cases: in vivo, C57BL/6 mice
# [1] = PK/PD duration of effect study, single oral gavage dose: administered compound level in skeletal muscle; set-up: key to transcyclohexyl NaR dimer concentration: BQL: Below quantitation limit; BDL: Below Detection Limit, No Peak Detected; conditions: pre-dose BQL
# Description: (§1) Transcyclohexyl nicotinic acid riboside (NaR) dimer was administered by oral gavage at a dose of 500 mg/kg in an Ethanol/PBS, pH 7.4/PEG400 (10/30/60) vehicle. The dosing volume was 5 ml/kg at a solution concentration of 100 mg/ml. The solution concentration was increased for the presence of counterion.
# (§2) Animals were fasted for 16 hours prior to dosing. Samples were collected pre-dose and at 0.25, 0.75, 1, 2, 4, 8 and 24 hr post dosing. Following euthanasia, the entire liver and skeletal muscle (gastrocnemius with attached soleus muscle, bilateral) were rinsed with 0.9% saline, and frozen for later bioanalysis. Samples were maintained frozen at −80° C. until bioanalysis.
# (§3) Samples were thawed, homogenized, extracted and analyzed by LC-MS on the same day. The LC used was a Shimadzu Nexera UPLC, and the mass spectrometer was an AB Sciex Qtrap 6500. Specimens were analyzed for levels of administered compound (transcyclohexyl NaR dimer), as well as for levels of NAD, NAAD, NAM, and NMN by the method of standard addition, to detect alterations from the basal levels of the analytes. Calibration standards for quantifying administered compound were prepared using transcyclohexyl NaR dimer in mouse liver or skeletal muscle homogenates. Corresponding standards for quantifying other metabolites were also prepared. Data are calculated as the mean concentration from n=6 animals per time point.
# [2] = test system: NAD, NAAD, NAM, and NMN levels in skeletal muscle; assay: PK/PD duration of effect study, single oral gavage dose: NAD, NAAD, NAM and NMN levels in skeletal muscle; set-up: key to NAAD concentration: BQL: Below quantitation limit; BDL: Below Detection Limit, No Peak Detected; conditions: for NAAD concentration: pre-dose BDL
# Description: as §1, §2, §3
# [3] = test system: NAD, NAAD, NAM, and NMN levels in liver; assay: PK/PD duration of effect study, single oral gavage dose: NAD, NAAD, NAM and NMN levels in liver; conditions: 0.25 hr after 500 mg/kg oral gavage
# Description: as §1, §2, §3
# [4] = 0.25 hr after 500 mg/kg oral gavage
# [5] = 1 hr after 500 mg/kg oral gavage
# [6] = 2 hr after 500 mg/kg oral gavage
# [7] = 24 hr after 500 mg/kg oral gavage
smiles,measurement,setting,value
"CC(=O)OC[C@H]1O[C@@H]([n+]2cccc(C(=O)O[C@H]3CC[C@H](OC(=O)c4ccc[n+]([C@@H]5O[C@H](COC(C)=O)[C@@H](OC(C)=O)[C@H]5OC(C)=O)c4)CC3)c2)[C@H](OC(C)=O)[C@@H]1OC(C)=O [transcyclohexyl NaR dimer, Transcyclohexyl nicotinic acid riboside (NaR) dimer]",transcyclohexyl NaR dimer concentration,[1]; [4],0.0142 mmol/kg
same,transcyclohexyl NaR dimer concentration,[1]; [5],0.00109 mmol/kg
same,transcyclohexyl NaR dimer concentration,[1]; [6],BQL
same,transcyclohexyl NaR dimer concentration,[1]; 4 hr after 500 mg/kg oral gavage,BQL
same,transcyclohexyl NaR dimer concentration,[1]; 8 hr after 500 mg/kg oral gavage,BQL
same,transcyclohexyl NaR dimer concentration,[1]; [7],BQL
same,concentration at 0.25 h,"[1]; C57BL/6, mouse, 0.25 hr after 500 mg/kg oral gavage, read-out: transcyclohexyl NaR dimer concentration",12000 ng/g
same,concentration at 1 h,"[1]; C57BL/6, mouse, 1 hr after 500 mg/kg oral gavage, read-out: transcyclohexyl NaR dimer concentration",921 ng/g
same,NMN concentration,"[2]; 0.25 hr after 500 mg/kg oral gavage, pre-dose 0.00225",0.002 mmol/kg
same,NAM concentration,"[2]; 0.25 hr after 500 mg/kg oral gavage, pre-dose 0.159",0.161 mmol/kg
same,NMN concentration,"[2]; 0.25 hr after 500 mg/kg oral gavage, pre-dose 0.752",0.667 µg/g
same,NAD concentration,"[2]; 0.25 hr after 500 mg/kg oral gavage, pre-dose 0.781",0.826 mmol/kg
same,NAM concentration,"[2]; 0.25 hr after 500 mg/kg oral gavage, pre-dose 19.4",19.7 µg/g
same,NAD concentration,"[2]; 0.25 hr after 500 mg/kg oral gavage, pre-dose 518",548 µg/g
same,NAAD concentration,[2]; [4],BDL
same,NMN concentration,"[2]; 0.75 hr after 500 mg/kg oral gavage, pre-dose 0.00225",0.00196 mmol/kg
same,NAM concentration,"[2]; 0.75 hr after 500 mg/kg oral gavage, pre-dose 0.159",0.208 mmol/kg
same,NMN concentration,"[2]; 0.75 hr after 500 mg/kg oral gavage, pre-dose 0.752",0.656 µg/g
same,NAD concentration,"[2]; 0.75 hr after 500 mg/kg oral gavage, pre-dose 0.781",0.861 mmol/kg
same,NAM concentration,"[2]; 0.75 hr after 500 mg/kg oral gavage, pre-dose 19.4",25.3 µg/g
same,NAD concentration,"[2]; 0.75 hr after 500 mg/kg oral gavage, pre-dose 518",571 µg/g
same,NAAD concentration,[2]; 0.75 hr after 500 mg/kg oral gavage,BDL
same,NMN concentration,"[2]; 1 hr after 500 mg/kg oral gavage, pre-dose 0.00225",0.00173 mmol/kg
same,NAM concentration,"[2]; 1 hr after 500 mg/kg oral gavage, pre-dose 0.159",0.184 mmol/kg
same,NMN concentration,"[2]; 1 hr after 500 mg/kg oral gavage, pre-dose 0.752",0.579 µg/g
same,NAD concentration,"[2]; 1 hr after 500 mg/kg oral gavage, pre-dose 0.781",0.720 mmol/kg
same,NAM concentration,"[2]; 1 hr after 500 mg/kg oral gavage, pre-dose 19.4",22.4 µg/g
same,NAD concentration,"[2]; 1 hr after 500 mg/kg oral gavage, pre-dose 518",478 µg/g
same,NAAD concentration,[2]; [5],BDL
same,NMN concentration,"[2]; 2 hr after 500 mg/kg oral gavage, pre-dose 0.00225",0.00191 mmol/kg
same,NAM concentration,"[2]; 2 hr after 500 mg/kg oral gavage, pre-dose 0.159",0.0918 mmol/kg
same,NMN concentration,"[2]; 2 hr after 500 mg/kg oral gavage, pre-dose 0.752",0.639 µg/g
same,NAD concentration,"[2]; 2 hr after 500 mg/kg oral gavage, pre-dose 0.781",0.875 mmol/kg
same,NAM concentration,"[2]; 2 hr after 500 mg/kg oral gavage, pre-dose 19.4",11.2 µg/g
same,NAD concentration,"[2]; 2 hr after 500 mg/kg oral gavage, pre-dose 518",581 µg/g
same,NAAD concentration,[2]; [6],BDL
same,NMN concentration,"[2]; 4 hr after 500 mg/kg oral gavage, pre-dose 0.00225",0.00222 mmol/kg
same,NAM concentration,"[2]; 4 hr after 500 mg/kg oral gavage, pre-dose 0.159",0.166 mmol/kg
same,NMN concentration,"[2]; 4 hr after 500 mg/kg oral gavage, pre-dose 0.752",0.740 µg/g
same,NAD concentration,"[2]; 4 hr after 500 mg/kg oral gavage, pre-dose 0.781",0.726 mmol/kg
same,NAM concentration,"[2]; 4 hr after 500 mg/kg oral gavage, pre-dose 19.4",20.2 µg/g
same,NAD concentration,"[2]; 4 hr after 500 mg/kg oral gavage, pre-dose 518",482 µg/g
same,NMN concentration,"[2]; 8 hr after 500 mg/kg oral gavage, pre-dose 0.00225",0.00245 mmol/kg
same,NAM concentration,"[2]; 8 hr after 500 mg/kg oral gavage, pre-dose 0.159",0.170 mmol/kg
same,NMN concentration,"[2]; 8 hr after 500 mg/kg oral gavage, pre-dose 0.752",0.818 µg/g
same,NAD concentration,"[2]; 8 hr after 500 mg/kg oral gavage, pre-dose 0.781",0.648 mmol/kg
same,NAM concentration,"[2]; 8 hr after 500 mg/kg oral gavage, pre-dose 19.4",20.8 µg/g
same,NAD concentration,"[2]; 8 hr after 500 mg/kg oral gavage, pre-dose 518",430 µg/g
same,NMN concentration,"[2]; 24 hr after 500 mg/kg oral gavage, pre-dose 0.00225",0.00199 mmol/kg
same,NAM concentration,"[2]; 24 hr after 500 mg/kg oral gavage, pre-dose 0.159",0.155 mmol/kg
same,NMN concentration,"[2]; 24 hr after 500 mg/kg oral gavage, pre-dose 0.752",0.665 µg/g
same,NAD concentration,"[2]; 24 hr after 500 mg/kg oral gavage, pre-dose 0.781",0.635 mmol/kg
same,NAM concentration,"[2]; 24 hr after 500 mg/kg oral gavage, pre-dose 19.4",18.9 µg/g
same,NAD concentration,"[2]; 24 hr after 500 mg/kg oral gavage, pre-dose 518",421 µg/g
same,NAAD concentration,[2]; [7],BDL
same,NMN concentration,[3]; pre-dose 0.00637,0.00556 mmol/kg
same,NAM concentration,[3]; pre-dose 0.430,0.481 mmol/kg
same,NAD concentration,[3]; pre-dose 1.08,0.938 mmol/kg
same,NMN concentration,[3]; pre-dose 2.13,1.86 µg/g
